Experimental data published in US10233201B2, “Class of HDAC inhibitors expands the renal progenitor cells population and improves the rate of recovery from acute kidney injury” (University of Pittsburgh—Of the Commonwealth System of …, priority 2012, dated 2019).
Values joined by “and” are separate entries in the source; they are usually repeats but may differ in a detail not shown here. Identical values can stand only once. Like-named read-outs stand apart in the source and are kept apart here.

Assays:
[1] = system: renal progenitor cells (lhx1a expression); assay: In situ hybridization for lhx1a expression in 10-somite embryos (renal progenitor cell expansion); assay type: in vivo; conditions: for embryos with expanded lhx1a expression (% expansion) / lhx1a expansion class, 3 μM: 3 μM from 2 hpf, 10-somite embryos; for lhx1a expansion class, 800 nM: 800 nM from 2 hpf; for lhx1a expansion class, 200 nM: 200 nM from 2 hpf; for lhx1a expansion class, 400 nM: 400 nM from 2 hpf; for Expansion of Cells, 200 nM / Expansion of Cells, 800 nM / Expansion of Cells, 1.5 μM / Expansion of Cells, 400 nM: lhx1a in situ hybridization, includes repeats* and recounts
Description: (§1) PTBA was synthesized as described below. Hydroxyurea and aphidicolin were obtained from Sigma-Aldrich.
(§2) In situ hybridization and immunocytochemistry: In situ hybridization was performed as previously described with some modifications. 142 Hybridization temperature was 65° C. Embryos were blocked in 2% blocking reagent (Roche) with 5% sheep serum in MAB (100 mM maleic acid and 150 mM NaCl [pH 7.5]). Whole-mount immunocytochemistry with 1:25 mouse anti-α6F antibody (Developmental Studies Hybridoma Bank) and 1:100 Cy3 secondary antibody (Jackson ImmunoResearch) was performed as described previously. 108 Embryos were embedded in JB-4 for sectioning per the manufacturer's instructions (Polysciences), sectioned at 5 μm, and mounted with Cytoseal 60 (Richard-Allan Scientific).
The remaining PTBA analogs were synthesized.
In situ hybridization for lhx1a was performed as described above. […] Compounds were classified as effective, partially-effective or ineffective based on comparison to the effects of PTBA at a given concentration.
Testing of the compounds is on-going, but for those tested, Table 3 provides first pass EC50s based upon colormetric in situ hybridizations for the Lhx1a mRNA expression levels. After the procedure is run, in situ hybridization is done for the lhx1 mRNA expression and the number of embryos that show an expanded kidney field is manually counted to establish the percent of embryos showing expansion. Then the EC50 is determined by plotting the percent expansion in Excel, graphing the results and using the trendline function to determine the 50 percent point. […] For UPHD-00186, the 4 values for EC50 are shown in Table 3 for the corresponding expression in zebrafish embryos employed an artificial intelligence-based image analysis method termed cognition network technology (CNT) for n=4.

zebrafish larvae = assay: Phenotypic scoring of edema and survival in zebrafish larvae at 72 hpf; assay type: in vivo; conditions: for larval phenotype in phenotypic screen of analogs: 3 μM, 2 to 72 hpf; for phenotype in initial chemical screen: 10 μM, larvae at 72 hpf
Description: as §1
Wild type: no visible edema or developmental delay.

[2] = system: pax2a, pax8 expression (kidney field); assay: In situ hybridization for renal progenitor markers pax2a, pax8 / kidney field; assay type: in vivo, zebrafish; conditions: screen hits, data not shown
Description: as §1, §2

[3] = system: human HDACs (HeLa cell nuclear extract); assay: Fluorescence histone deacetylation assay with HeLa cell nuclear extract; assay type: biochemical; conditions: 5 mM compound, 10 μg HeLa extract
Description: To evaluate this in vitro, the deacetylation of a fluorescent peptide substrate was measured in the presence of human HDACs.
In vitro HDAC activity assays were performed using a fluorescence HDAC assay kit (Active Motif) according to the manufacturer's instructions. For maintaining compound solubility at 5 mM, the final DMSO concentration in all assay wells was increased to 5%. Fluorescence was detected using an M5 Plate Reader ([…])

[4] = system: mouse models of unilateral ureteral obstruction (UUO); assay: Unilateral ureteral obstruction (UUO); assay type: in vivo; conditions: IP days 0 to 6, kidneys harvested at day 7
Description: The model of unilateral ureteral obstruction generates progressive renal fibrosis. Surgically created UUO can be experimentally manipulated with respect to timing, severity, and duration, while reversal of the obstruction permits the study of recovery.
FIG. 47 represents the results of the testing of compounds UPHD-00022, UPHD-00025 (PTBA), UPHD-00029, UPHD-00036, and UPHD-00186, for their efficacy in mouse models of unilateral ureteral obstruction (UUO) as follows: in the UUO models, one ureter was ligated for 7 days and compounds were delivered via IP for days 0 to 6. At day 7 kidneys were harvested for Sirius red staining. […] Therefore, in the models tested, the only compound proven to be effective in all models and with significant delayed onset of treatment is UPHD-186.

[5] = Danio rerio, 800 nM, read-out: embryos with expanded lhx1a expression (% expansion)
[6] = Danio rerio, 400 nM, read-out: embryos with expanded lhx1a expression (% expansion)

2-amino-PTBA [Compound 2-amino-PTBA, reference compound]
embryos with expanded lhx1a expression (% expansion) [1]: no expansion

O=C(O)c1cccc(Sc2ccccc2)c1 [3-(phenylthio)benzoic acid, reference compound]
embryos with expanded lhx1a expression (% expansion) [1]: no expansion

O=C(O)CCCSc1ccc2ccccc2c1 [4-(naphthalen-2-ylthio)butanoic acid, reference compound]
embryos with expanded lhx1a expression (% expansion) ([1]; listed as 4-(napthalen-2-ylthio)butanoic acid): no expansion

O=C(CCCSc1ccc(Cl)cc1)NO [4-[(4-chlorophenyl)thio]-N-hydroxybutanamide]
lhx1a expansion class, 800 nM [1]: +/−

O=C(O)CCCCc1ccccc1 [5-phenylpentanoic acid, reference compound]
embryos with expanded lhx1a expression (% expansion) [1]: no expansion

Cn1cc(C(=O)Cc2ccccc2)cc1/C=C/C(=O)NO [APHA compound 8, reference compound]
lhx1a expansion class, 3 μM [1]: −

Nc1ccccc1NC(=O)c1ccc(CNC(=O)OCc2cccnc2)cc1 [MS-275, reference compound]
lhx1a expansion class, 3 μM [1]: − | larval phenotype in phenotypic screen of analogs (zebrafish larvae): showed no effect on zebrafish embryos

O=C(CCCSc1ccccc1)NO [N-hydroxy-4-(phenylthio)butanamide]
lhx1a expansion class, 800 nM [1]: +/−

Cc1ccc(SCCCC(=O)NO)cc1 [N-hydroxy-4-[(4-methylphenyl)thio]butanamide]
lhx1a expansion class, 200 nM [1]: − | lhx1a expansion class, 400 nM [1]: − | lhx1a expansion class, 800 nM [1]: + | responders at 0.8 µM [1, 5]: 61%

N=C(N)SCc1ccc(Cl)cc1Cl.O=[N+]([O-])c1c(O)c(Cl)cc(Cl)c1Cl [NSC35400]
phenotype in initial chemical screen (zebrafish larvae): generated pericardial edema | effect on size of the kidney field / renal markers (in situ hybridization) [2]: did not affect the size of the kidney field

COc1ccc(/C=C(\C#N)C(N)=O)c(OC)c1 [NSC134664]
phenotype in initial chemical screen (zebrafish larvae): generated pericardial edema | effect on size of the kidney field / renal markers (in situ hybridization) [2]: did not affect the size of the kidney field

N=C(N)c1ccc(N=Nc2c(O)ccc3c2[nH]c2ccccc23)cc1 [NSC357777]
phenotype in initial chemical screen (zebrafish larvae): generated pericardial edema | effect on size of the kidney field / renal markers (in situ hybridization) [2]: did not affect the size of the kidney field

O=C(O)CCCS(=O)(=O)c1ccccc1 [PSOBA, 4-(phenylsulfonyl)butanoic acid, reference compound]
HDAC activity, % of the control value [3]: 70% | embryos with expanded lhx1a expression (% expansion) [1]: no ability to expand renal progenitor cells

O=C(CCCCCCC(=O)Nc1ccccc1)NO [SAHA, reference compound]
lhx1a expansion class, 3 μM [1]: − | larval phenotype in phenotypic screen of analogs (zebrafish larvae): showed no effect on zebrafish embryos

O=C(CCCSc1ccc(F)cc1)NO [UPHD-00029, 4-[(4-fluorophenyl)sulfanyl]-N-hydroxybutanamide]
lhx1a expansion class, 200 nM [1]: − | lhx1a expansion class, 400 nM [1]: +/− | lhx1a expansion class, 800 nM [1]: + | responders at 0.4 µM [1, 6]: 35% | responders at 0.8 µM [1, 5]: 60% | Expansion of Cells, 200 nM [1]: 6.25% | Expansion of Cells, 800 nM [1]: 60% and 33% | Expansion of Cells, 1.5 μM [1]: 82.4% | fibrosis (Sirius red) and expression of fibrosis markers in UUO kidney [4]: reduce both fibrosis and expression of fibrosis markers

Nc1ccccc1NC(=O)CCCSc1ccccc1 [UPHD-00036, N-(2-aminophenyl)-4-(phenylsulfanyl)butanamide]
fibrosis (Sirius red) and expression of fibrosis markers in UUO kidney [4]: reduce both fibrosis and expression of fibrosis markers

O=C(CCCCCSc1ccccc1)Nc1ccccc1O [UPHD-00187, N-(2-hydroxyphenyl)-6-(phenylsulfanyl) hexanamide]
Expansion of Cells, 400 nM [1]: 58% | Expansion of Cells, 800 nM [1]: 52% | Expansion of Cells, 1.5 μM [1]: 52%

Nc1ccccc1NC(=O)CCCCSCc1ccccc1 [UPHD-00188, N-(2-aminophenyl)-5-(benzysulfanyl) pentanamide]
Expansion of Cells, 800 nM [1]: 0% | Expansion of Cells, 1.5 μM [1]: 0%

Nc1ccccc1NC(=O)CCCSCCc1ccccc1 [UPHD-00190, N-(2-aminophenyl)-4-[(2-phenylethyl)sulfanyl]butanamide]
expansion ([1]; 0.055 μM): 72% | Expansion of Cells, 200 nM [1]: 50% | Expansion of Cells, 400 nM [1]: 0% | Expansion of Cells, 800 nM [1]: 0% | Expansion of Cells, 1.5 μM [1]: 0%

CCC(=O)CCCCC[C@@H]1NC(=O)[C@H]2CCCCN2C(=O)[C@H]([C@@H](C)CC)NC(=O)[C@H](Cc2cn(OC)c3ccccc23)NC1=O [apicidin, reference compound]
lhx1a expansion class, 200 nM [1]: − | lhx1a expansion class, 400 nM [1]: +/− | lhx1a expansion class, 800 nM [1]: XX^1 | embryos surviving treatment ([1]; 800 nM, n=36): 31% | treated embryos killed ([1]; 800 nM, n=36): 69% | lethality before the 10-somite stage ([1]; 1.5 μM): lethal | lethality before the 10-somite stage ([1]; 3 μM): killed all treated embryos | responders at 0.4 µM ([1]; Danio rerio, read-out: embryos with expanded lhx1a expression (% expansion), 400 nM): 22%

CCC(C)OC(=O)CCCSc1ccccc1 (stereo not shown) [butan-2-yl 4-(phenylthio)butanoate]
lhx1a expansion class, 800 nM [1]: +/−

COC(=O)CCCSc1ccc(F)cc1 [methyl 4-[(4-fluorophenyl)thio]butanoate]
lhx1a expansion class, 200 nM [1]: +/− | lhx1a expansion class, 400 nM [1]: +/− | lhx1a expansion class, 800 nM [1]: + | lethality before the 10-somite stage ([1]; 3 μM): killed all treated embryos | responders at 0.2 µM ([1]; Danio rerio, 200 nM, read-out: embryos with expanded lhx1a expression (% expansion)): 22% | responders at 0.4 µM [1, 6]: 26% | responders at 0.8 µM [1, 5]: 64%

COC(=O)CCCSc1ccc(C)cc1 [methyl 4-[(4-methylphenyl)thio]butanoate]
lhx1a expansion class, 200 nM [1]: − | lhx1a expansion class, 400 nM [1]: − | lhx1a expansion class, 800 nM [1]: + | responders at 0.8 µM [1, 5]: 49%

CCCOC(=O)CCCSc1ccccc1 [propyl 4-(phenylthio)butanoate]
lhx1a expansion class, 800 nM [1]: +/−

CC(C)(C)OC(=O)CCCSc1ccccc1 [tert-butyl 4-(phenylthio)butanoate]
larval phenotype in phenotypic screen of analogs (zebrafish larvae): did not cause a statistically-significant decrease in the number of wild-type larval phenotypes

O=C(CCCCCCC(=O)Nc1ccc([C@H]2O[C@@H](CSc3nc(-c4ccccc4)c(-c4ccccc4)o3)C[C@@H](c3ccc(CO)cc3)O2)cc1)NO [tubacin]
larval phenotype in phenotypic screen of analogs (zebrafish larvae): appeared wild-type

CCCC(CCC)C(=O)O [valproic acid]
larval phenotype in phenotypic screen of analogs (zebrafish larvae): generated edemic and/or lethal phenotypes
